Counter-ions that a name gives are not always drawn.
Legend:
[1] = system: phosphorylated ERK downstream of KRAS G12C in MIA PaCa2 cells; experiment: Cell p-ERK detection experiment (HTRF) in MIA PaCa2; assay type: cell-based, human; conditions: Homo sapiens, MIA PaCa-2, 2 h, MIA PaCa2 cells, 2 hours with compound, Advance ERK phospho-T202/Y204 HTRF kit; read-out: p-ERK IC50
Method in brief: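 KRAS G12C-mutant MIA PaCa2 cells (2.5E4 per well, overnight) exposed 2 h to a 3.16-fold compound dilution series at 0.1% DMSO. Lysates probed 4 h with HTRF antibodies to ERK phospho-T202/Y204; inhibition versus DMSO control and blank, IC50 by four-parameter fit.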

[2] = molecular target: T1, KRAS G12C (Homo sapiens, UniProt P01116, G12C); experiment: KRAS G12C NEA-HTRF experiment (SOS1-catalyzed displacement of GDP by GTP); assay type: biochemical
T1 construct: purchased Reactionbiology
Method in brief: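 His-tagged KRAS G12C preloaded with DY647-GDP was preincubated 15 min at 20 °C with compound, then exchanged with SOS1 (0.2 μM working solution) and GTP (200 μM working solution) for 2 h at 20 °C in the dark. HTRF 665/615 nm ratio with anti-His-Tb was normalised to T0 and no-compound controls; IC50 by four-parameter fit.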

T1 sequence (P01116 1-188 isoform P01116-2 G12C): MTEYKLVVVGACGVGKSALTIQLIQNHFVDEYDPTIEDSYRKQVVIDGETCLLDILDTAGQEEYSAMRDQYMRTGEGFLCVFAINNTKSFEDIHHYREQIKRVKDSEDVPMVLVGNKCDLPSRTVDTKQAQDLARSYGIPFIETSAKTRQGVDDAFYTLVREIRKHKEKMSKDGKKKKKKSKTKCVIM

| IC50 [1] [nM] | IC50 [2] [nM] | Compound |
| --- | --- | --- |
| 20 | 26 | C=CC(=O)N1CCN2C(=O)c3c(N4C[C@@H](O)CC4(C)C)nc(-c4c(O)cccc4F)c(F)c3OC[C@H]2C1 (single isomer, unassigned) [Z256-1] |
| 42 | 41 | C=CC(=O)N1CCN2C(=O)c3c(N4C[C@@H](OC)CC4(C)C)nc(-c4c(O)cccc4F)c(F)c3OC[C@H]2C1 (single isomer, unassigned) [Z256a-1] |
| 17 | 18 | C=CC(=O)N1CCN2C(=O)c3c(N4C[C@H](OC)CC4(C)C)nc(-c4c(O)cccc4F)c(F)c3OC[C@H]2C1 (single isomer, unassigned) [Z256a-2] |
| 43 | 33 | C=CC(=O)N1CCN2C(=O)c3c(N4C[C@@](C)(O)CC4(C)C)nc(-c4c(O)cccc4F)c(F)c3OC[C@H]2C1 (single isomer, unassigned) [Z256b-1] |
| 89 | 76 | C=CC(=O)N1CCN2C(=O)c3c(N4Cc5cn(C)nc5[C@H]4C)nc(-c4c(O)cccc4F)c(Cl)c3OC[C@H]2C1 (single isomer, unassigned) [Z291-1S, trifluoroacetate] |
| 8 | 7 | C=CC(=O)N1CCN2C(=O)c3c(N4CC(N(C)CCOC)CC4(C)C)nc(-c4c(O)cccc4F)c(Cl)c3OCC2C1 (single isomer, unassigned) [Z296-1] |
| 32 | 39 | C=CC(=O)N1CCN2C(=O)c3c(N4C[C@H](N(C)CCOC)CC4(C)C)nc(-c4c(O)cccc4F)c(Cl)c3OC[C@H]2C1 (single isomer, unassigned) [Z296-2] |
| 11 | 19 | C=CC(=O)N1CCN2C(=O)c3c(N4C[C@H](N5CCOCC5)CC4(C)C)nc(-c4c(O)cccc4F)c(Cl)c3OC[C@H]2C1 (single isomer, unassigned) [Z297-1] |
| 18 | 8 | C=CC(=O)N1CCN2C(=O)c3c(N4C[C@@H](N5CCOCC5)CC4(C)C)nc(-c4c(O)cccc4F)c(Cl)c3OC[C@H]2C1 (single isomer, unassigned) [Z297-2] |
| 71 | 58 | C=CC(=O)N1CCN2C(=O)c3c(N4CCN(C)[C@H](C)[C@@H]4C)nc(-c4c(O)cccc4F)c(Cl)c3OC[C@H]2C1 (single isomer, unassigned) [Z308a-1] |
| 15 | 16 | C=CC(=O)N1CCN2C(=O)c3c(N4C[C@@H](N(C)C)CC4(C)C)nc(-c4c(O)cccc4F)c(Cl)c3OC[C@H]2C1 (single isomer, unassigned) [Z324-1] |
| 34 | 61 | C=CC(=O)N1CCN2C(=O)c3c(N4C[C@H](N(C)C)CC4(C)C)nc(-c4c(O)cccc4F)c(Cl)c3OC[C@H]2C1 (single isomer, unassigned) [Z324-2] |
| 61 | 35 | C=CC(=O)N1CCN2C(=O)c3c(N4C[C@H](O)CC4(C)C)nc(-c4ccccc4F)c(Cl)c3OC[C@H]2C1 (single isomer, unassigned) [Z325-2] |
| 66 | 26 | C=CC(=O)N1CCN2C(=O)c3c(N4CC[C@@H](OC)C4(C)C)nc(-c4c(O)cccc4F)c(F)c3OC[C@H]2C1 (single isomer, unassigned) [Z327-1] |
| 172 | 64 | C=CC(=O)N1CCN2C(=O)c3c(N4CC[C@H](OC)C4(C)C)nc(-c4c(O)cccc4F)c(F)c3OC[C@H]2C1 (single isomer, unassigned) [Z327-2] |
| 130 | 130 | C=CC(=O)N1CCN2C(=O)c3c(N4CCO[C@](C)(COC)C4)nc(-c4c(O)cccc4F)c(Cl)c3OC[C@H]2C1 (single isomer, unassigned) [Z332-1] |

| IC50 [1] [nM] | IC50 [2] [nM] | Compound |
| --- | --- | --- |
| 63 | 27 | C=CC(=O)N1CCN2C(=O)c3c(N4CC(O)CC4(C)C)nc(-c4c(O)cccc4F)c(C)c3OC[C@H]2C1 (single isomer, unassigned) [Z336-2] |
| 59 | 27 | C=CC(=O)N1CCN2C(=O)c3c(N4C[C@@H](O)CC4(C)C)nc(-c4c(O)ccc(Cl)c4F)c(F)c3OC[C@H]2C1 (single isomer, unassigned) [Z340-1] |
| 106 | 35 | C=CC(=O)N1CCN2C(=O)c3c(N4C[C@@H](O)CC4(C)C)nc(-c4c(F)ccc(Cl)c4O)c(F)c3OC[C@H]2C1 (single isomer, unassigned) [Z341-1] |
| 61 | 41 | C=CC(=O)N1CCN2C(=O)c3c(N4Cc5nn(C)cc5[C@@H]4C)nc(-c4c(O)cccc4F)c(Cl)c3OC[C@H]2C1 (single isomer, unassigned) [Z345-2] |
| 85 | 98.1 | C=CC(=O)N1CCN2C(=O)c3c(N4CC[C@@H](N(C)C)C4(C)C)nc(-c4c(O)cccc4F)c(Cl)c3OC[C@H]2C1 (single isomer, unassigned) [Z360-1] |
| 25 | 36.9 | C=CC(=O)N1CCN2C(=O)c3c(N4CC[C@H](N(C)C)C4(C)C)nc(-c4c(O)cccc4F)c(Cl)c3OC[C@H]2C1 (single isomer, unassigned) [Z360-2] |
| 151 | 31 | C=CC(=O)N1CCN2C(=O)c3c(N4C[C@@H](O)CC4(C)C)nc(-c4c(F)ccc(F)c4O)c(F)c3OC[C@H]2C1 (single isomer, unassigned) [Z449-1] |
| 26 | 20 | C=CC(=O)N1CCN2C(=O)c3c(N4CCCC4(C)C)nc(-c4c(O)cccc4F)c(Cl)c3OC[C@H]2C1 [Z22, (6aR)-8-acryloyl-4-chloro-1-(2,2-dimethylpyrrolidin-1-yl)-3-(2-fluoro-6-hydroxyphenyl)-6,6a,7,8,9,10-hexahydro-12H-pyrazino[2,1-c]pyrido[3,4-f][1,4]oxazepin-12-one] |
| 107 | 111 | C=CC(=O)N1CCN2C(=O)c3c(N4CCN(C)C5(CC5)C4)nc(-c4c(O)cccc4F)c(Cl)c3OC[C@H]2C1 [Z83, (6aR)-8-acryloyl-4-chloro-3-(2-fluoro-6-hydroxyphenyl)-1-(4-methyl-4,7-diazaspiro[2 .5]octan-7-yl)-6,6a,7,8,9,10-hexahydro-12H-pyrazino[2,1-c]pyrido[3,4-f][1,4]oxazepin-12 (6aH)-one] |
| 30 | 122 | C=CC(=O)N1CCN2C(=O)c3c(N4C[C@H](N(C)C)C[C@@H]4C)nc(-c4c(O)cccc4F)c(Cl)c3OC[C@H]2C1 [Z237-1, (6aR)-8-acryloyl-4-chloro-1-((2S,4R)-4-(dimethylamino)-2-methylpyrrolidin-1-yl)-3-(2-fluoro-6-hydroxyphenyl)-6,6a,7,8,9,10-hexahydro-12H-pyrazino[2,1-c]pyrido[3,4-f][1,4]oxazepin-12-one] |
| 30 | 65 | C=CC(=O)N1CCN2C(=O)c3c(N4C[C@@H](N(C)C)C[C@@H]4C)nc(-c4c(O)cccc4F)c(Cl)c3OC[C@H]2C1 [Z237-2, (6aR)-8-acryloyl-4-chloro-1-((2S,4S)-4-(dimethylamino)-2-methylpyrrolidin-1-yl)-3-(2-fluoro-6-hydroxyphenyl)-6,6a,7,8,9,10-hexahydro-12H-pyrazino[2,1-c]pyrido[3,4-f][1,4]oxazepin-12-one] |
| 22 | 10 | C=CC(=O)N1CCN2C(=O)c3c(N4CC(CO)CC4(C)C)nc(-c4c(O)cccc4F)c(Cl)c3OC[C@H]2C1 (stereo partly drawn) [Z240, (6aR)-8-acryloyl-4-chloro-3-(2-fluoro-6-hydroxyphenyl)-1-(4-(hydroxymethyl)-2,2-dimethylpyrrolidin-1-yl)-6,6a,7,8,9,10-hexahydro-12H-pyrazino[2,1-c]pyrido[3,4-f][1,4]oxazepin-12-one] |
| 22 | 18 | C=CC(=O)N1CCN2C(=O)c3c(N4CCC(O)C4(C)C)nc(-c4c(O)cccc4F)c(Cl)c3OC[C@H]2C1 (stereo partly drawn) [Z241, (6aR)-8-acryloyl-1-(3-hydroxy-2,2-dimethylpyrrolidin-1-yl)-4-chloro-3-(2-fluoro-6-hydroxyphenyl)-6,6a,7,8,9,10-hexahydro-12H-pyrazino[2,1-c]pyrido[3,4-f][1,4]oxazepin-12-one] |
| 12 | 9 | C=CC(=O)N1CCN2C(=O)c3c(N4CCC(OC)C4(C)C)nc(-c4c(O)cccc4F)c(Cl)c3OC[C@H]2C1 (stereo partly drawn) [Z241a, (6aR)-8-acryloyl-4-chloro-3-(2-fluoro-6-hydroxyphenyl)-1-(3-methoxy-2,2-dimethylpyrrolidin-1-yl)-6,6a,7,8,9,10-hexahydro-12H-pyrazino[2,1-c]pyrido[3,4-f][1,4]oxazepin-12-one] |
| 19 | 23 | C=CC(=O)N1CCN2C(=O)c3c(N4CC(C)(O)CC4(C)C)nc(-c4c(O)cccc4F)c(Cl)c3OC[C@H]2C1 (stereo partly drawn) [Z243, (6aR)-8-acryloyl-4-chloro-3-(2-fluoro-6-hydroxyphenyl)-1-(4-hydroxy-2,2,4-trimethylpyrrolidin-1-yl)-6,6a,7,8,9,10-hexahydro-12H-pyrazino[2,1-c]pyrido[3,4-f][1,4]oxazepin-12-one] |
| 19 | 47 | C=CC(=O)N1CCN2C(=O)c3c(N4CC(OC)CC4(C)C)nc(-c4c(O)cccc4F)c(Cl)c3OC[C@H]2C1 (stereo partly drawn) [Z244, (6aR)-8-acryloyl-4-chloro-3-(2-fluoro-6-hydroxyphenyl)-1-(4-methoxy-2,2-dimethylpyrrolidin-1-yl)-12-oxo-6,6a,7,8,9,10-hexahydro-12H-pyrazino[2,1-c]pyrido[3,4-f][1,4]oxazepin-12-one] |
